# Test: RP, Thermo Scientific Acclaim RSLC 120 C18, 100 × 2.1 mm, 2.2 µm, 30 °C, 0.2 mL/min, estimated dead time 1.1 min; A: 90% water + 10% methanol + 0.01% formic acid + 5 mM ammonium formate, pH 3.61; B: methanol + 0.01% formic acid + 5 mM ammonium formate, pH 3.61; gradient (min/%B) 0/1 1/1 2/39 13/99.9 15/99.9 15.1/1 20.1/1
# Conditions: stereoisomer not certain
row,LC retention time [min],SMILES
1,9.34,CSc1ccc2c(c1)N(CCC1CCCCN1C)c1ccccc1S2 (configuration not stated) [Thioridazine]
2,6.94,CN1CCN(C(c2ccccc2)c2ccccc2)CC1 [Cyclizine]
3,14,CCCCOC(=O)C1C(C(=O)OCCCC)C2(Cl)C(Cl)=C(Cl)C1(Cl)C2(Cl)Cl (configuration not stated) [Chlorendate-Dibutyl]
4,10.2,CCCCN1CC(=O)N2C(Cc3c([nH]c4ccccc34)C2c2ccc3c(c2)OCO3)C1=O (configuration not stated) [Tadalafil-n-Butyl]
5,5.96,CC(C)Nc1nc(NC(C)C)[nH]c(=O)n1 [Propazine-2-hydroxy (Prometon-Hydroxy)]
6,4.42,CC12CCC(=O)C=C1C(O)CC1C2C(O)CC2(C)C1CCC2(O)C(=O)CO (stereo not drawn) [6-beta-Hydroxycortisol]
7,7.18,O=C(CCCN1CCC(O)(c2ccc(Cl)cc2)CC1)c1ccc(F)cc1 [Haloperidol]
8,14.2,COC1CC(OC2C(C)OC(OC3C(C)=CCC4CC(CC5(CCC(C)C(C(C)C)O5)O4)OC(=O)C4C=C(C)C(O)C5OCC(=CC=CC3C)C45O)CC2OC)OC(C)C1O (configuration not stated) [Ivermectin B1b]
9,9.01,CC(C)(C)NCC(O)COc1ccccc1C1CCCC1 (configuration not stated) [Penbutolol]
10,6.58,CCNC(=O)C(C)OC(=O)Nc1ccccc1 (configuration not stated) [Carbetamide]
11,12,CCOc1c(N)c2c(c(OCC)c1OCC)C(C1c3c(cc4c(c3OC)OCO4)CCN1C)OC2=O (configuration not stated) [Tritoqualine]
12,9.91,CCCc1nn(C)c2c(=S)nc(-c3cc(S(=O)(=O)N4CC(C)NC(C)C4)ccc3OCC)[nH]c12 (configuration not stated) [Sildenafil Thiodimethyl]
13,7.99,NC(=O)Nc1ccc(Cl)c(Cl)c1 [3-4-(dichlorophenyl)-urea]
14,7.47,Cc1ccc(C(CCN(C)C)c2ccccc2)cc1 (configuration not stated) [Tolpropamine]
15,10.3,CCCc1nc2c(C)cc(-c3nc4ccccc4n3C)cc2n1Cc1ccc(-c2ccccc2C(=O)O)cc1 [Telmisartan]
16,6.47,CC(CN1c2ccccc2Sc2cccnc21)N(C)C (configuration not stated) [Isothipendyl]
17,11.6,CNC(C)C1CCC(N)C(OC2C(N)CC(N)C(OC3OCC(C)(O)C(NC)C3O)C2O)O1 (configuration not stated) [Gentamycin]
18,6.41,c1ccc(CN(CC2=NCCN2)c2ccccc2)cc1 [Antazoline]
19,11.9,CCCCOC(=O)COc1ccc(Cl)cc1Cl [2.4-D-butylester]
20,13.4,C=CCNc1nc(NCC=C)nc(N2CCN(C(c3ccc(F)cc3)c3ccc(F)cc3)CC2)n1 [Almitrine]

row,SMILES,LC retention time [min]
1,CC=CCC1=C(C)C(OC(=O)C2C(C=C(C)C(=O)OC)C2(C)C)CC1=O (configuration not stated) [Pyrethrins: Cinerin II],11.6
2,CC1(C)OC(c2ccco2)CN1C(=O)C(Cl)Cl (configuration not stated) [Furilazole],7.92
3,CON=C(C1=NOCCO1)c1ccccc1Oc1ncnc(Oc2ccccc2Cl)c1F [Fluoxastrobin],9.95
4,CCCC(C(=O)c1ccc2ccccc2c1)N1CCCC1 (configuration not stated) [Naphyrone],7.33
5,COP(=S)(OC)SCN1C(=O)c2ccccc2C1=O [Phosmet],8.94
6,CCCCCn1cc(C(=O)c2ccc(Cl)c3ccccc23)c2ccccc21 [JWH-398],13.3
7,CCCCCn1cc(C(=O)Cc2ccccc2Cl)c2ccccc21 [JWH-203],12.2
8,c1cc2c(c(NC3=NCCN3)c1)CCC2 [Indanazoline],4.76
9,CCOP(=S)(OCC)Oc1ccc(S(C)=O)cc1 (configuration not stated) [Fensulfothion],8.27
10,CN1COCN(Cc2cnc(Cl)s2)C1=N[N+](=O)[O-] [Thiamethoxam],4.25
11,CCCCCc1cc(O)c2c(c1)OC(C)(C)C1CCC(CO)=CC21 (configuration not stated) [THC-OH. 11-OH-THC],12.5
12,CC(C)N(C(=O)SCC(Cl)=C(Cl)Cl)C(C)C [Triallate],12.7

# — the RepoRT retention time repository (doi:10.1021/acs.analchem.2c02893)
